According to ChEMBL document CHEMBL1140123, “Whole structure-activity relationships of the fat-accumulation inhibitor (-)-ternatin: recognition of the importance of each amino acid residue” (J Med Chem, 2008):

Assays:
3T3-L1 [1] = assay: Inhibition of fat accumulation in mouse 3T3L1 cells assessed as liberated triglyceride after 7 days; type: functional, cell-based; details: 3T3-L1, 168 h
[2] = Toxicity in mouse 3T3L1 cells; type: cell-based; details: 3T3-L1 cells
3T3-L1 [3] = assay: Inhibition of fat accumulation in mouse 3T3L1 cells assessed as liberated triglyceride after 7 days relative to (-)-ternatin; type: functional

Compound | IC50 (3T3-L1 [1]) [µM] | IC50 [2] [µM] | Activity (3T3-L1 [3])
CCCCCC[C@@H]1C(=O)N[C@H]([C@H](O)C(C)C)C(=O)N[C@H]([C@@H](C)CC)C(=O)N(C)[C@@H](C)C(=O)N(C)[C@@H](CC(C)C)C(=O)N[C@@H](CC(C)C)C(=O)N(C)[C@@H](C)C(=O)N1C | 0.016 | 0.066 | 
CCCCCC[C@H]1C(=O)N[C@@H](CC(C)C)C(=O)N(C)[C@@H](C)C(=O)N(C)[C@H](C)C(=O)N[C@H]([C@H](O)C(C)C)C(=O)N[C@H]([C@@H](C)CC)C(=O)N(C)[C@@H](C)C(=O)N1C | 0.38 | 2.1 | 
CC[C@H](C)[C@H]1NC(=O)[C@@H](C)NC(=O)[C@@H](C)N(C)C(=O)[C@H](C)N(C)C(=O)[C@H](CC(C)C)NC(=O)[C@H](CC(C)C)N(C)C(=O)[C@H](C)N(C)C1=O | 14 | > 130 | 
CC[C@H](C)[C@H]1NC(=O)[C@@H](COCc2ccccc2)NC(=O)[C@H](C)N(C)C(=O)[C@H](C)N(C)C(=O)[C@H](CC(C)C)NC(=O)[C@H](CC(C)C)N(C)C(=O)[C@H](C)N(C)C1=O | 5.9 | 89 | 
CCCCCC[C@H]1C(=O)N(C)[C@H](C)C(=O)N[C@H]([C@H](O)C(C)C)C(=O)N[C@H]([C@@H](C)CC)C(=O)N(C)[C@@H](C)C(=O)N(C)[C@@H](CC(C)C)C(=O)N[C@@H](CC(C)C)C(=O)N1C | 0.12 | 0.96 | 
CC(C)C[C@@H]1NC(=O)[C@H](CC(C)C)N(C)C(=O)[C@H](C)N(C)C(=O)[C@@H](C)NC(=O)[C@@H]([C@H](O)C(C)C)NC(=O)[C@@H](C)N(C)C(=O)[C@H](C)N(C)C1=O | > 130 | > 130 | 0.002
CCCCCC[C@@H]1NC(=O)[C@H](CC(C)C)N(C)C(=O)[C@H](C)N(C)C(=O)[C@@H]([C@@H](C)CC)NC(=O)[C@@H]([C@H](O)C(C)C)NC(=O)[C@@H](C)N(C)C(=O)[C@H](C)N(C)C1=O | > 130 | > 130 | 0.002
CC[C@H](C)[C@H]1NC(=O)[C@@H]([C@H](O)C(C)C)NC(=O)[C@@H](C)N(C)C(=O)[C@H](C)N(C)C(=O)[C@H](C)NC(=O)[C@H](CC(C)C)N(C)C(=O)[C@H](C)N(C)C1=O | > 130 | > 130 | 0.002
CCCCCC[C@H]1C(=O)N(C)[C@@H](CC(C)C)C(=O)N[C@@H](CC(C)C)C(=O)N(C)[C@@H](C)C(=O)N(C)[C@H](C)C(=O)N[C@H]([C@H](O)C(C)C)C(=O)N[C@H]([C@@H](C)CC)C(=O)N1C | 1.1 | > 12 | 
CCCCCC[C@H]1NC(=O)[C@@H]([C@H](O)C(C)C)NC(=O)[C@@H](C)N(C)C(=O)[C@H](C)N(C)C(=O)[C@H](CC(C)C)NC(=O)[C@H](CC(C)C)N(C)C(=O)[C@H](C)N(C)C1=O | 46 | > 130 | 
CC[C@H](C)[C@H]1NC(=O)[C@@H]([C@H](O)C(C)C)NC(=O)[C@@H](C)N(C)C(=O)[C@H](C)N(C)C(=O)[C@H](CC(C)C)NC(=O)[C@H](C)N(C)C(=O)[C@H](C)N(C)C1=O | 1.6 | > 29 | 
